# Non-standard residues stand in square brackets, D forms with d. Residues, ends and D or L forms follow the SMILES beside them. Cya = N[C@@H](CS(=O)(=O)O)C(=O)O; Aad = N[C@@H](CCCC(=O)O)C(=O)O; pGlu = O=C1CC[C@@H](C(=O)O)N1
# Test system: mAb 1H11
# Assay: OSTEOMARK competitive immunoassay testing apparent affinity of synthetic peptides for mAb 1H11
# Assay type: binding
# Details: for Results: peptide binding to mAb 1H11, 1 μg synthetic peptide = X nmole BCE: nanomoles Bone Collagen Equivalents equivalent to 1 μg peptide, back fit into OSTEOMARK standard curve, values between 0.5 and 1 OD averaged; for binding to mAb 1H11 (in words): synthetic peptide, antibody inhibition assay
# Description: Generally, a milligram per mL solution of the peptide was made in PBS. The absorbence at A280 was read and the concentration confirmed. Dilutions of the peptide were then made in a buffer such as OSTEOMARK (TM) calibrator diluent (OSTEOMARK Assay, Ostex International, Seattle, Wash.). Working strength concentrations were between 10 and 0.01 micrograms per milliliter.
# To test the apparent affinity of the synthetic peptides for mAb 1H11, the OSTEOMARK assay was run using OSTEOMARK kits and components, including monoclonal antibody 1H11. A standard curve was run using OSTEOMARK calibrators. Peptide samples were generally tested at 10, 3, 1, and down to 0.01 μG per mL. The standard OSTEOMARK curve was generated using a four parameter logistic curve fit program (MedData Inc., N.Y., N.Y.). Peptide values were back fit into the standard curve and values were reported in picomoles Bone Collagen Equivalents (BCE)/mL (which equals nanomolar BCE, or nM BCE).
# Values in the Table are reported as the number of nanomoles of BCE equivalent to a microgram of a given peptide. Antibody binding values below 500 nMole BCE were considered to be commercially insignificant.
Compound,"Results: peptide binding to mAb 1H11, 1 μg synthetic peptide = X nmole BCE",binding to mAb 1H11 (in words),binding to mAb 1H11 (in words) (listed as Gln-Tyr-Asp-Gly-Glu-Gly-Val-Gly)
"CC(C)[C@H](NC(=O)CNC(=O)[C@H](CCCC(=O)O)NC(=O)CNC(=O)[C@H](CC(=O)O)NC(=O)[C@H](Cc1ccc(O)cc1)NC(=O)[C@@H]1CCC(=O)N1)C(=O)NCC(=O)O [SEQ ID NO:34, J Y D G X^4 G V G] ([pGlu]YDG[Aad]GVG-OH)",750 nmole BCE,,
"CC(C)[C@H](NC(=O)CNC(=O)[C@H](CCCNC(=N)N)NC(=O)CNC(=O)[C@H](CC(=O)O)NC(=O)[C@H](Cc1ccc(O)cc1)NC(=O)[C@@H]1CCC(=O)N1)C(=O)NCC(=O)O [SEQ ID NO:15, J Y D G R G V G] ([pGlu]YDGRGVG-OH)",23 nmole BCE,,
CC(C)[C@H](NC(=O)CNC(=O)[C@H](CCC(=O)O)NC(=O)CNC(=O)[C@H](CC(=O)O)NC(=O)[C@H](Cc1ccc(O)cc1)NC(=O)[C@@H](N)CCC(=O)O)C(=O)NCC(=O)O [EYDGEGVG] (H-EYDGEGVG-OH),,not recognized,
"CC(C)[C@H](NC(=O)CNC(=O)[C@H](CO)NC(=O)CNC(=O)[C@H](CC(=O)O)NC(=O)[C@H](Cc1ccc(O)cc1)NC(=O)[C@@H]1CCC(=O)N1)C(=O)NCC(=O)O [SEQ ID NO:16, J Y D G S G V G] ([pGlu]YDGSGVG-OH)",30 nmole BCE,,
"CSCC[C@H](NC(=O)CNC(=O)[C@H](CC(=O)O)NC(=O)[C@H](Cc1ccc(O)cc1)NC(=O)[C@@H]1CCC(=O)N1)C(=O)NCC(=O)N[C@H](C(=O)NCC(=O)O)C(C)C [SEQ ID NO:11, J Y D G M G V G] ([pGlu]YDGMGVG-OH)",183 nmole BCE,,
"CC(C)[C@H](NC(=O)[C@H](C)NC(=O)[C@H](CCC(=O)O)NC(=O)CNC(=O)[C@H](CC(=O)O)NC(=O)[C@H](Cc1ccc(O)cc1)NC(=O)[C@@H]1CCC(=O)N1)C(=O)NCC(=O)O [SEQ ID NO:28, J Y D G E A V G] ([pGlu]YDGEAVG-OH)",< 50 nmole BCE,loss of mAb 1H11 binding affinity,
"CC(C)[C@H](NC(=O)CNC(=O)[C@H](CCC(=O)O)NC(=O)CNC(=O)[C@H](CC(=O)O)NC(=O)[C@H](Cc1ccc(O)cc1)NC(=O)[C@@H]1CCC(=O)N1)C(=O)NCC(=O)O [SEQ ID NO:4, J Y D G E G V G] ([pGlu]YDGEGVG-OH)",2400 nmole BCE,Improved binding,comparable to that of the cross-linked NTx antigen
"CC(C)[C@H](NC(=O)CNC(=O)[C@@H](NC(=O)CNC(=O)[C@H](CC(=O)O)NC(=O)[C@H](Cc1ccc(O)cc1)NC(=O)[C@@H]1CCC(=O)N1)[C@@H](C)O)C(=O)NCC(=O)O [SEQ ID NO:17, J Y D G T G V G] ([pGlu]YDGTGVG-OH)",252 nmole BCE,,
"CC(C)[C@H](NC(=O)CNC(=O)[C@H](CC(=O)O)NC(=O)CNC(=O)[C@H](CCC(=O)O)NC(=O)[C@H](Cc1ccc(O)cc1)NC(=O)[C@@H]1CCC(=O)N1)C(=O)NCC(=O)O [SEQ ID NO:32, J Y E G D G V G] ([pGlu]YEGDGVG-OH)",1000 nmole BCE,,
"CC(C)[C@H](NC(=O)CNC(=O)[C@H](CCC(=O)O)NC(=O)CNC(=O)[C@H](CC(=O)O)NC(=O)[C@H](Cc1ccc(O)cc1)NC(=O)[C@@H]1CCC(=O)N1)C(=O)NCC(N)=O [SEQ ID NO:44, J Y D G E G V X^6] ([pGlu]YDGEGVG-NH2)",< 50 nmole BCE,prevented recognition,
"CC(C)[C@H](NC(=O)CNC(=O)[C@H](CCC(=O)O)NC(=O)CNC(=O)[C@H](CCC(=O)O)NC(=O)[C@H](Cc1ccc(O)cc1)NC(=O)[C@@H]1CCC(=O)N1)C(=O)NCC(=O)O [SEQ ID NO:30, J Y E G E G V G] ([pGlu]YEGEGVG-OH)",3000 nmole BCE,,
J Y D G C G V G [SEQ ID NO:2],2500 nmole BCE,excellent binding to mAb 1H11,
"CC(C)[C@H](NC(=O)CNC(=O)[C@H](CC(N)=O)NC(=O)CNC(=O)[C@H](CC(=O)O)NC(=O)[C@H](Cc1ccc(O)cc1)NC(=O)[C@@H]1CCC(=O)N1)C(=O)NCC(=O)O [SEQ ID NO:12, J Y D G N G V G] ([pGlu]YDGNGVG-OH)",135 nmole BCE,,
"CC(C)[C@H](NC(=O)CNC(=O)[C@H](CCC(=O)O)NC(=O)[C@@H](NC(=O)[C@H](CC(=O)O)NC(=O)[C@H](Cc1ccc(O)cc1)NC(=O)[C@@H]1CCC(=O)N1)C(C)C)C(=O)NCC(=O)O [SEQ ID NO:37, J Y D V E G V G] ([pGlu]YDVEGVG-OH)",6 nmole BCE,substantially eliminates mAb 1H11 binding affinity,
"CC(C)[C@H](NC(=O)CNC(=O)[C@H](CCC(=O)O)NC(=O)[C@H](C)NC(=O)[C@H](CC(=O)O)NC(=O)[C@H](Cc1ccc(O)cc1)NC(=O)[C@@H]1CCC(=O)N1)C(=O)NCC(=O)O [SEQ ID NO:27, J Y D A E G V G] ([pGlu]YDAEGVG-OH)",< 50 nmole BCE,substantially eliminates mAb 1H11 binding affinity,
"J Y D G E G V G L [SEQ ID NO:40, b13: -Lys added to the C-terminus]",< 50 nmole BCE,prevents mAb 1H11 binding,
"CC(C)[C@H](NC(=O)CNC(=O)[C@@H]1CCCN1C(=O)CNC(=O)[C@H](CC(=O)O)NC(=O)[C@H](Cc1ccc(O)cc1)NC(=O)[C@@H]1CCC(=O)N1)C(=O)NCC(=O)O [SEQ ID NO:13, J Y D G P G V G] ([pGlu]YDGPGVG-OH)",2056 nmole BCE,,
"CC(C)[C@H](NC(=O)CNC(=O)[C@H](Cc1ccccc1)NC(=O)CNC(=O)[C@H](CC(=O)O)NC(=O)[C@H](Cc1ccc(O)cc1)NC(=O)[C@@H]1CCC(=O)N1)C(=O)NCC(=O)O [SEQ ID NO:5, J Y D G F G V G] ([pGlu]YDGFGVG-OH)",365 nmole BCE,,
"CC(C)[C@H](NC(=O)CNC(=O)[C@H](Cc1c[nH]cn1)NC(=O)CNC(=O)[C@H](CC(=O)O)NC(=O)[C@H](Cc1ccc(O)cc1)NC(=O)[C@@H]1CCC(=O)N1)C(=O)NCC(=O)O [SEQ ID NO:7, J Y D G H G V G] ([pGlu]YDGHGVG-OH)",650 nmole BCE,more limited degree of 1H11 binding,
"CC(C)[C@H](NC(=O)CNC(=O)[C@H](CC(=O)O)NC(=O)[C@H](Cc1ccc(O)cc1)NC(=O)[C@@H]1CCC(=O)N1)C(=O)NCC(=O)N[C@H](C(=O)NCC(=O)O)C(C)C [SEQ ID NO:18, J Y D G V G V G] ([pGlu]YDGVGVG-OH)",400 nmole BCE,,
"CC(C)[C@H](NC(=O)CNC(=O)CNC(=O)CNC(=O)[C@H](CC(=O)O)NC(=O)[C@H](Cc1ccc(O)cc1)NC(=O)[C@@H]1CCC(=O)N1)C(=O)NCC(=O)O [SEQ ID NO:6, J Y D G G G V G] ([pGlu]YDGGGVG-OH)",114 nmole BCE,,
"CC(C)[C@H](NC(=O)CNC(=O)[C@H](CS(=O)(=O)O)NC(=O)CNC(=O)[C@H](CC(=O)O)NC(=O)[C@H](Cc1ccc(O)cc1)NC(=O)[C@@H]1CCC(=O)N1)C(=O)NCC(=O)O [SEQ ID NO:26, j Y D G X^2 G V G] ([pGlu]YDG[Cya]GVG-OH)",1000 nmole BCE,,
"CC(C)[C@H](NC(=O)CNC(=O)[C@H](Cc1ccc(O)cc1)NC(=O)CNC(=O)[C@H](CC(=O)O)NC(=O)[C@H](Cc1ccc(O)cc1)NC(=O)[C@@H]1CCC(=O)N1)C(=O)NCC(=O)O [SEQ ID NO:20, J Y D G Y G V G] ([pGlu]YDGYGVG-OH)",104 nmole BCE,,
"CC(C)[C@H](NC(=O)CNC(=O)[C@H](CCC(N)=O)NC(=O)CNC(=O)[C@H](CC(=O)O)NC(=O)[C@H](Cc1ccc(O)cc1)NC(=O)[C@@H]1CCC(=O)N1)C(=O)NCC(=O)O [SEQ ID NO:14, J Y D G Q G V G] ([pGlu]YDGQGVG-OH)",148 nmole BCE,,
"CC[C@H](C)[C@H](NC(=O)CNC(=O)[C@H](CC(=O)O)NC(=O)[C@H](Cc1ccc(O)cc1)NC(=O)[C@@H]1CCC(=O)N1)C(=O)NCC(=O)N[C@H](C(=O)NCC(=O)O)C(C)C [SEQ ID NO:8, J Y D G I G V G] ([pGlu]YDGIGVG-OH)",250 nmole BCE,,
J Y D G E G V G [SEQ ID NO:29],< 50 nmole BCE,eliminate the requisite binding of mAb 1H11,

# From US5817755A, “Synthetic peptide analogs of cross-linked N-telopeptides of type I collagen” (Washington Research Foundation, priority 1997, dated 1998)
